Laboratory results as given in patent US10710978B2, “STK4 inhibitors for treatment of hematologic malignancies” (Dana-Farber Cancer Institute, Inc., priority 2015, dated 2020).
Like-named read-outs stand apart in the source and are kept apart here.

Assays:
Assay in all cases: KiNativ assay
Assay type in all cases: binding
Details in all cases: H929 live cell
CaMK1d = CaMK1d (Homo sapiens (Human), UniProt Q8IU85)
Description: (§1) Biochemical IC50s of the compounds of the present disclosure against various kinases were measured in a KiNativ assay. Compounds were screened in duplicate at 10 μM in H929 live cell. IC50 was measured via Mass spectroscopy (MS).

NuaK1 = NuaK1 (Homo sapiens (Human), UniProt O60285)
Sequence of NuaK1 (O60285 whole entry): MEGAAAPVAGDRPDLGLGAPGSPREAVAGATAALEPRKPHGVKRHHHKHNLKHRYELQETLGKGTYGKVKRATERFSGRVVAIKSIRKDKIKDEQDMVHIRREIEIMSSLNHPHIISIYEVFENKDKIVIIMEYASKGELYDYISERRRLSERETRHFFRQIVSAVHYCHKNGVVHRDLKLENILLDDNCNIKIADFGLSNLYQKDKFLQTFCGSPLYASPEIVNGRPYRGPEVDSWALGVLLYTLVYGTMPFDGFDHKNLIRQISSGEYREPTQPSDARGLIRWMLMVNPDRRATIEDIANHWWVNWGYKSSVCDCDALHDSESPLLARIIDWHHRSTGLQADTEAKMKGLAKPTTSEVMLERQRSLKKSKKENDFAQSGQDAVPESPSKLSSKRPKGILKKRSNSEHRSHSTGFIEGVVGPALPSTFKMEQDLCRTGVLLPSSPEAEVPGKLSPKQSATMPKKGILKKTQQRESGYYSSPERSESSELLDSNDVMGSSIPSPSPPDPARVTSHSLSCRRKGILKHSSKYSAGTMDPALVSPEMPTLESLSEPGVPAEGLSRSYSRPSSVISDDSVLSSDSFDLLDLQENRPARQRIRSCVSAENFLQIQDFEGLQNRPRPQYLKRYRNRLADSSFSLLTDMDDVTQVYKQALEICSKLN
Description: as §1

AurB = AurB (Homo sapiens (Human), UniProt Q96GD4)
Description: as §1

IRE1 = IRE1 (Homo sapiens (Human), UniProt O75460)
Description: as §1

MST1 = MST1 (Homo sapiens (Human), UniProt Q13043)
Description: as §1

ABL, ARG = tested on: ABL, ARG
Description: as §1

[1] = tested on: RSK1 domain1, RSK2 domain1, RSK3 domain1
Description: as §1

MST1, MST2 = tested on: MST1, MST2
Description: as §1

LKB1 = LKB1 (Homo sapiens (Human), UniProt Q15831)
Description: as §1

PIK3C3 = PIK3C3 (Homo sapiens (Human), UniProt Q8NEB9)
Description: as §1

RSK1 domain2 = RSK1 domain2 (Homo sapiens (Human), UniProt Q15418)
Description: as §1

PRP4 = PRP4 (Homo sapiens (Human), UniProt Q13523)
Sequence of PRP4 (Q13523 whole entry): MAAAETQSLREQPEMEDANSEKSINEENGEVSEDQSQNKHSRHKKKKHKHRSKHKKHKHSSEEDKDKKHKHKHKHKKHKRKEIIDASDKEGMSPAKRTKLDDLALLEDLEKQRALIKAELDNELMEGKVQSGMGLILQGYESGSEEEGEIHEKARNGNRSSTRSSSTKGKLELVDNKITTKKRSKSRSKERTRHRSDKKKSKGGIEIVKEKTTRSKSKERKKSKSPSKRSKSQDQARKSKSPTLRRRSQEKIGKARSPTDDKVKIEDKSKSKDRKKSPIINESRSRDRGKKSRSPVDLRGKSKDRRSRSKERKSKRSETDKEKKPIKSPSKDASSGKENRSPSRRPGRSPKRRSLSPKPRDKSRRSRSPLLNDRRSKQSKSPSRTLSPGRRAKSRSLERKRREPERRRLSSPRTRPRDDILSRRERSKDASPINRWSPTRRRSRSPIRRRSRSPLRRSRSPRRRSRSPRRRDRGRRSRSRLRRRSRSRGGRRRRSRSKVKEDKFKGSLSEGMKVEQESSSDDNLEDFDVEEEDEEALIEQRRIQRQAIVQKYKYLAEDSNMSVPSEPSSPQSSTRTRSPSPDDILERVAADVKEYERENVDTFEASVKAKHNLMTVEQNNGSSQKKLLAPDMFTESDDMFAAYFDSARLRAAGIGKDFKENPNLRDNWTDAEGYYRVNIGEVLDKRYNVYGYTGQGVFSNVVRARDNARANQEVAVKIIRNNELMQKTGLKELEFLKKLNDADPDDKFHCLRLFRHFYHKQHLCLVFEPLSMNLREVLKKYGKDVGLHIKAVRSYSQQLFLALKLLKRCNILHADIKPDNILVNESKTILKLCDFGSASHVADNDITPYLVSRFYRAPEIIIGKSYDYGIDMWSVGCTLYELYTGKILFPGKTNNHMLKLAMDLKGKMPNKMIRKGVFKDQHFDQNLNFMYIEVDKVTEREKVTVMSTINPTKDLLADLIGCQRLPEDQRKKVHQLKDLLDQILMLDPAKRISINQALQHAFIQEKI
Description: as §1

MAP2K7 = MAP2K7 (Homo sapiens (Human), UniProt O14733)
Sequence of MAP2K7 (O14733 whole entry): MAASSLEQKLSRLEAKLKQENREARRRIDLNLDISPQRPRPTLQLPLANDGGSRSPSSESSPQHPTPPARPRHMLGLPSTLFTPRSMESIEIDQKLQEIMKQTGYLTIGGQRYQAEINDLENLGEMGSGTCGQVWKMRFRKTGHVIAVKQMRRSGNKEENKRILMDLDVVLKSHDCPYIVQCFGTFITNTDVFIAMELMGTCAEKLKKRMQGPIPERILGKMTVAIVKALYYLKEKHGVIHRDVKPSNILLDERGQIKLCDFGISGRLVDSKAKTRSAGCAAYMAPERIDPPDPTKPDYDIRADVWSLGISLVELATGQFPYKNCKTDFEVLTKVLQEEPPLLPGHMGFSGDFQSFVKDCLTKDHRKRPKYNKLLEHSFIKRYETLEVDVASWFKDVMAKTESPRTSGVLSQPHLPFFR
Description: as §1

CDK7 = CDK7 (Homo sapiens (Human), UniProt P50613)
Description: as §1

MLKL = MLKL (Homo sapiens (Human), UniProt Q8NB16)
Description: as §1

p70S6Kb = p70S6Kb (Homo sapiens (Human), UniProt Q9UBS0)
Description: as §1

MST3 = MST3 (Homo sapiens (Human), UniProt Q9Y6E0)
Sequence of MST3 (Q9Y6E0 whole entry): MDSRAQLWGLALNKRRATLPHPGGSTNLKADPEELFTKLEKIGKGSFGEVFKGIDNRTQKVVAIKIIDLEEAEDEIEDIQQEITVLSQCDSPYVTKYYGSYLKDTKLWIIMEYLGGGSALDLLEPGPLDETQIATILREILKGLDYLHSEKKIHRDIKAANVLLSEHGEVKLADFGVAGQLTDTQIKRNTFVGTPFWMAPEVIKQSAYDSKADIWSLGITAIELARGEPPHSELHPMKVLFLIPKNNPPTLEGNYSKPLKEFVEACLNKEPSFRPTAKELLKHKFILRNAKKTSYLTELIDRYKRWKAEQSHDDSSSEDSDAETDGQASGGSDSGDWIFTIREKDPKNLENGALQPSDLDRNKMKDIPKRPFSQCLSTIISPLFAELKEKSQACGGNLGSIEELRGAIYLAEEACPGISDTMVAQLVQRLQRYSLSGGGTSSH
Description: as §1

PKCz = PKCz (Homo sapiens (Human), UniProt Q05513)
Sequence of PKCz (Q05513 whole entry): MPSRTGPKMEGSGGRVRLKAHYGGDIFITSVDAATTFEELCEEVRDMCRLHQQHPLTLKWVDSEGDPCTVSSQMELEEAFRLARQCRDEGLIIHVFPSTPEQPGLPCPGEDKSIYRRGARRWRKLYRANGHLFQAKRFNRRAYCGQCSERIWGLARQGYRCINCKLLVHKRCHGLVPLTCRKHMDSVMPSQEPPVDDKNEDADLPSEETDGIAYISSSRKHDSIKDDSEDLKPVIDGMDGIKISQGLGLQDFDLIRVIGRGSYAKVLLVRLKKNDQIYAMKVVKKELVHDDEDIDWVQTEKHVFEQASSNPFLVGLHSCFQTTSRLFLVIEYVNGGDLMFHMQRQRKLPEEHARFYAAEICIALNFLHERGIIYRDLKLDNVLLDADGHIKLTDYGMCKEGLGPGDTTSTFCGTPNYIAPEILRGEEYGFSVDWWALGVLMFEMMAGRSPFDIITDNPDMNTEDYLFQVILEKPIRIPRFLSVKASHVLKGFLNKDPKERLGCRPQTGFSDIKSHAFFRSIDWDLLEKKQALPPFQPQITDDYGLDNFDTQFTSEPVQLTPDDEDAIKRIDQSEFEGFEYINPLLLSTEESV
Description: as §1

IKKb = IKKb (Homo sapiens (Human), UniProt O14920)
Description: as §1

MSK2 domain1 = MSK2 domain1 (Homo sapiens (Human), UniProt O75676)
Description: as §1

SLK = SLK (Homo sapiens (Human), UniProt Q9H2G2)
Sequence of SLK (Q9H2G2 whole entry): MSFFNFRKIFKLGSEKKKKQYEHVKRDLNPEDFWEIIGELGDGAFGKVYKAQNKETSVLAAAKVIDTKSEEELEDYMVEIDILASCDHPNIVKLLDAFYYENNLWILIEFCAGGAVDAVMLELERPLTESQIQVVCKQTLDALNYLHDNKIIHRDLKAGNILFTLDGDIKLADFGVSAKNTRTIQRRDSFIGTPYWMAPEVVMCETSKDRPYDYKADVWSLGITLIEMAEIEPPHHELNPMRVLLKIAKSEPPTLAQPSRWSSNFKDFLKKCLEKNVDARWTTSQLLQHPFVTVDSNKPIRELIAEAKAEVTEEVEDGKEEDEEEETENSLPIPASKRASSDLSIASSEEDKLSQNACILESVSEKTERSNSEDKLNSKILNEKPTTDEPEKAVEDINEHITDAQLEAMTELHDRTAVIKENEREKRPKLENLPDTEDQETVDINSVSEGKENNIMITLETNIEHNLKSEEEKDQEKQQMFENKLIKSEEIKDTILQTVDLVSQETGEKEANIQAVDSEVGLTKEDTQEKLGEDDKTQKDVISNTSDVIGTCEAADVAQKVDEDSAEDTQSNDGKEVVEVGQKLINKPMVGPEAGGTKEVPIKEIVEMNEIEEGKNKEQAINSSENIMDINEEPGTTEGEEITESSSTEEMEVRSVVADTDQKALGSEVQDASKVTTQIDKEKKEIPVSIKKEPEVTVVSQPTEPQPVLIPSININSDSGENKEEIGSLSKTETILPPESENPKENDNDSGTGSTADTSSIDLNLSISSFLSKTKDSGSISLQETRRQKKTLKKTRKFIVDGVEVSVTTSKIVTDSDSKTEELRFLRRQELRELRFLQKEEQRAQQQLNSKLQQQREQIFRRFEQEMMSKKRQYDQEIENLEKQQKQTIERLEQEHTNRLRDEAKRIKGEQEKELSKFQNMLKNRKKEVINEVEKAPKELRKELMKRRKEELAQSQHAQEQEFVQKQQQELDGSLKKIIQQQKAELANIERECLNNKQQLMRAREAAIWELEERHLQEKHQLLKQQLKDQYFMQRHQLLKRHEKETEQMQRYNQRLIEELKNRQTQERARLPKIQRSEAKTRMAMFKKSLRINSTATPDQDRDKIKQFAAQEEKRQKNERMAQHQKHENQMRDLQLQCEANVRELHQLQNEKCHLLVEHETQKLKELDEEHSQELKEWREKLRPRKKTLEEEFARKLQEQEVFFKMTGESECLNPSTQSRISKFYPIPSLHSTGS
Description: as §1

TAO2 = TAO2 (Homo sapiens (Human), UniProt Q9UL54)
Description: as §1

TAO1, TAO3 = tested on: TAO1, TAO3
Description: as §1

GCK = GCK (Homo sapiens (Human), UniProt Q12851)
Description: as §1

p70S6K = p70S6K (Homo sapiens (Human), UniProt P23443)
Description: as §1

RSK2 domain1 = RSK2 domain1 (Homo sapiens (Human), UniProt P51812)
Description: as §1

JAK1 domain2 = JAK1 domain2 (Homo sapiens (Human), UniProt P23458)
Description: as §1

NEK9 = NEK9 (Homo sapiens (Human), UniProt Q8TD19)
Description: as §1

EphB2 = EphB2 (Homo sapiens (Human), UniProt P29323)
Description: as §1

MAST3 = MAST3 (Homo sapiens (Human), UniProt O60307)
Description: as §1

ILK = ILK (Homo sapiens (Human), UniProt Q13418)
Description: as §1

PRPK = PRPK (Homo sapiens (Human), UniProt Q96S44)
Sequence of PRPK (Q96S44 whole entry): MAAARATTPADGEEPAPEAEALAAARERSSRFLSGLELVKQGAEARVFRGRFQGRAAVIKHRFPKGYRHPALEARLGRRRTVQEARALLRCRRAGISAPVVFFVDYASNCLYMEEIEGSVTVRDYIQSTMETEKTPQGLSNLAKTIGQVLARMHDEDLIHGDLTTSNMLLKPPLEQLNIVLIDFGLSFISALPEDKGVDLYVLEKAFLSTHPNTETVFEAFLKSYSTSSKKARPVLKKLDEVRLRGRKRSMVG
Description: as §1

Wnk1, Wnk2, Wnk3 = tested on: Wnk1, Wnk2, Wnk3
Description: as §1

Sequence of CaMK1d (Q8IU85 whole entry): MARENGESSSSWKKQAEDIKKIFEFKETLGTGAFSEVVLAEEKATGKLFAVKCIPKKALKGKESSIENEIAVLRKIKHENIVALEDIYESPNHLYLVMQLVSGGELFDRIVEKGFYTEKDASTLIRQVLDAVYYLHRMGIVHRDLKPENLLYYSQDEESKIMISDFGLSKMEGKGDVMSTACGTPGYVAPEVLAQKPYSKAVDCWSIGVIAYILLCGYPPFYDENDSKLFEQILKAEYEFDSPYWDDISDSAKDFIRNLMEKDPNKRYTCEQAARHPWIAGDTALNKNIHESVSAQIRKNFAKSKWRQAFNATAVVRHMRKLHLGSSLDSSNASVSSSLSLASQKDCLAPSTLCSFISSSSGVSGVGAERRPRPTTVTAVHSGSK

CN(C1CC1)S(=O)(=O)c1ccc(-c2cnc(N)c(-c3ccc4c(c3)CCNC4=O)c2)c(F)c1 [Compound I-28, 4-(6-amino-5-(1-oxo-1,2,3,4-tetrahydroisoquinolin-6-yl)pyridin-3-yl)-N-cyclopropyl-3-fluoro-N-methylbenzenesulfonamide]
inhibition at 10 µM (CaMK1d; read-out: % inhibition (range)): 0%
inhibition at 10 µM (CaMK1d; read-out: inhibition (10 μM)): 15.2%
inhibition (10 μM) (NuaK1): 66.7%
inhibition at 10 µM (NuaK1; read-out: % inhibition (range)): 50 to 75%
inhibition at 10 µM (NuaK1; read-out: inhibition (10 μM)): 55.6%
inhibition at 10 µM (AurB; read-out: % inhibition (range)): 0%
inhibition at 10 µM (AurB; read-out: inhibition (10 μM)): 32.7%
inhibition at 10 µM (IRE1; read-out: % inhibition (range)): 0%
inhibition at 10 µM (IRE1; read-out: inhibition (10 μM)): -34.1%
inhibition at 10 µM (MST1; read-out: % inhibition (range)): > 90%
inhibition at 10 µM (MST1; read-out: inhibition (10 μM)): 94.5%
% inhibition (range) (ABL, ARG; 10 μM): 0.0%
inhibition (10 μM) (ABL, ARG): 13.3%
% inhibition (range) ([1]; 10 μM): 0.0%
inhibition (10 μM) [1]: 13.3%
% inhibition (range) (MST1, MST2; 10 μM): >90%
inhibition (10 μM) (MST1, MST2): 97.5%
inhibition at 10 µM (LKB1; read-out: % inhibition (range)): 0%
inhibition at 10 µM (LKB1; read-out: inhibition (10 μM)): -0.6%
inhibition at 10 µM (PIK3C3; read-out: % inhibition (range)): > 100%
inhibition at 10 µM (PIK3C3; read-out: inhibition (10 μM)): -107%
inhibition at 10 µM (RSK1 domain2; read-out: % inhibition (range)): 0%
inhibition at 10 µM (RSK1 domain2; read-out: inhibition (10 μM)): 3.8%
inhibition at 10 µM (PRP4; read-out: % inhibition (range)): 0%
inhibition at 10 µM (PRP4; read-out: inhibition (10 μM)): 3.7%
inhibition at 10 µM (MAP2K7; read-out: % inhibition (range)): 0%
inhibition at 10 µM (MAP2K7; read-out: inhibition (10 μM)): -0.5%
inhibition at 10 µM (CDK7; read-out: % inhibition (range)): 0%
inhibition at 10 µM (CDK7; read-out: inhibition (10 μM)): 12.3%
inhibition at 10 µM (MLKL; read-out: % inhibition (range)): 0%
inhibition at 10 µM (MLKL; read-out: inhibition (10 μM)): 23.9%
inhibition at 10 µM (p70S6Kb; read-out: % inhibition (range)): 0%
inhibition at 10 µM (p70S6Kb; read-out: inhibition (10 μM)): -14.4%
inhibition at 10 µM (MST3; read-out: % inhibition (range)): 50 to 75%
inhibition at 10 µM (MST3; read-out: inhibition (10 μM)): 72.3%
inhibition at 10 µM (PKCz; read-out: % inhibition (range)): 0%
inhibition at 10 µM (PKCz; read-out: inhibition (10 μM)): 6.2%
inhibition at 10 µM (IKKb; read-out: % inhibition (range)): 0%
inhibition at 10 µM (IKKb; read-out: inhibition (10 μM)): 6.8%
inhibition at 10 µM (MSK2 domain1; read-out: % inhibition (range)): 0%
inhibition at 10 µM (MSK2 domain1; read-out: inhibition (10 μM)): 2.9%
inhibition at 10 µM (SLK; read-out: % inhibition (range)): 50 to 75%
inhibition at 10 µM (SLK; read-out: inhibition (10 μM)): 58.9%
inhibition at 10 µM (TAO2; read-out: % inhibition (range)): 50 to 75%
inhibition at 10 µM (TAO2; read-out: inhibition (10 μM)): 61.5%
% inhibition (range) (TAO1, TAO3; 10 μM): 75-90%
inhibition (10 μM) (TAO1, TAO3): 85.5%
inhibition at 10 µM (GCK; read-out: % inhibition (range)): 75 to 90%
inhibition at 10 µM (GCK; read-out: inhibition (10 μM)): 84.7%
inhibition at 10 µM (p70S6K; read-out: % inhibition (range)): 0%
inhibition at 10 µM (p70S6K; read-out: inhibition (10 μM)): -22.7%
inhibition at 10 µM (RSK2 domain1; read-out: % inhibition (range)): 0%
inhibition at 10 µM (RSK2 domain1; read-out: inhibition (10 μM)): 20.3%
inhibition at 10 µM (JAK1 domain2; read-out: % inhibition (range)): 0%
inhibition at 10 µM (JAK1 domain2; read-out: inhibition (10 μM)): -33.7%
inhibition at 10 µM (NEK9; read-out: % inhibition (range)): 0%
inhibition at 10 µM (NEK9; read-out: inhibition (10 μM)): -4.7%
inhibition at 10 µM (EphB2; read-out: % inhibition (range)): 0%
inhibition at 10 µM (EphB2; read-out: inhibition (10 μM)): -2%
inhibition at 10 µM (MAST3; read-out: % inhibition (range)): 0%
inhibition at 10 µM (MAST3; read-out: inhibition (10 μM)): 14.2%
inhibition at 10 µM (ILK; read-out: % inhibition (range)): 0%
inhibition at 10 µM (ILK; read-out: inhibition (10 μM)): -5.8%
inhibition at 10 µM (PRPK; read-out: % inhibition (range)): 0%
inhibition at 10 µM (PRPK; read-out: inhibition (10 μM)): 10.1%
% inhibition (range) (Wnk1, Wnk2, Wnk3; 10 μM): 0.0%
inhibition (10 μM) (Wnk1, Wnk2, Wnk3): −31.8%
